# According to patent US20240150356A1, “Pyrimidine amide compounds and use thereof” (ALPHALA CO., LTD., priority 2019, published 2024):
# Test system: Hep3B cells (hepatocellular carcinoma cell line)
# Test: In vitro MTS cell viability assay (NCI-60 methodology), Hep3B
# Format: cell-based
# Conditions: Homo sapiens, 48 h, Table 1, MTS, 2 days drug incubation, 50% reduction vs time zero, read-out: Hep3B LC50
# Outline: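 Hep3B cells given five 2-fold dilutions of compound for 2 days, with viability by MTS measured at time zero and at end. LC50 is the concentration giving a 50% fall in viable cells relative to the start of treatment, per NCI-60 formula.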
row,SMILES,LC50
1,"CC(C)n1ncc2c(NC(=O)c3ccc([N+](=O)[O-])s3)nc(-c3ccc(C(C)(C)C)cc3)nc21 [Compound 1-23, N-(6-(4-(tert-butyl)phenyl)-1-isopropyl-1H-pyrazolo[3,4-d]pyrimidin-4-yl)-5-nitrothiophene-2-carboxamide]",1.57 µM
2,"Cn1ncc2c(NC(=O)c3ccc([N+](=O)[O-])s3)nc(-c3ccc(OC(C)(C)C)cc3)nc21 [Compound 1-7, N-(6-(4-(tert-butoxy)phenyl)-1-methyl-1H-pyrazolo[3,4-d]pyrimidin-4-yl)-5-nitrothiophene-2-carboxamide]",1.51 µM

# Same assay, conditions: Homo sapiens, 48 h, Table 2, MTS, 2 days drug incubation, 50% reduction vs time zero, read-out: Hep3B LC50
row,SMILES,LC50
1,"CC(C)(C)n1ncc2c(-c3ccc(OC(F)(F)F)cc3)nc(NC(=O)c3ccc([N+](=O)[O-])s3)nc21 [Compound 2-4, N-(1-(tert-butyl)-4-(4-(trifluoromethoxy)phenyl)-1H-pyrazolo[3,4,d]pyrimidin-6-yl)-5-nitrothiophene-2-carboxamide]",3.05 µM

# Same assay, conditions: Homo sapiens, 48 h, Table 4, MTS, 2 days drug incubation, 50% reduction vs time zero, read-out: Hep3B LC50
row,SMILES,LC50
1,Cc1csc2c(NC(=O)c3ccc([N+](=O)[O-])s3)nc(-c3ccc(F)cc3)nc12 [Compound 4-8],1.7 µM
2,"Cc1csc2c(NC(=O)c3ccc([N+](=O)[O-])s3)nc(-c3cc(F)c(F)c(F)c3)nc12 [Compound 4-9, N-(7-methyl-2-(3,4,5-trifluorophenyl)thieno[3,2-d]pyrimidin-4-yl)-5-nitrothiophene-2-carboxamide]",> 10 µM

# Same assay, conditions: Homo sapiens, 48 h, Table 5, MTS, 2 days drug incubation, 50% reduction vs time zero, read-out: Hep3B LC50
row,SMILES,LC50
1,"O=C(Nc1nc(C2CCNCC2)nc2c1cnn2-c1ccccc1)c1ccc([N+](=O)[O-])s1 [Compound 5-1, 5-nitro-N-(1-phenyl-6-(piperidin-4-yl)-1H-pyrazolo[3,4-d]pyrimidin-4-yl)thiophene-2-carboxamide]",> 5 µM

# Same assay, conditions: Homo sapiens, 48 h, Table 6, MTS, 2 days drug incubation, 50% reduction vs time zero, read-out: Hep3B LC50
row,SMILES,LC50
1,Cc1ccn(-c2nc(NC(=O)c3ccc([N+](=O)[O-])s3)c3cnn(-c4ccc(F)cc4)c3n2)n1 [Compound 6-108],0.09 µM
2,Cc1ccccc1-n1ncc2c(NC(=O)c3ccc([N+](=O)[O-])s3)nc(-c3ccc(F)nc3)nc21 [Compound 6-2],> 3 µM
3,"O=C(Nc1nc(-c2cccc(OC(F)(F)F)c2)nc2c1cnn2-c1cccc(Cl)c1)c1ccc([N+](=O)[O-])s1 [Compound 6-40, N-(1-(3-chlorophenyl)-6-(3-(trifluoromethoxy)phenyl)-1H-pyrazolo[3,4-d]pyrimidin-4-yl)-5-nitrothiophene-2-carboxamide]",0.48 µM
4,"O=C(Nc1nc(-c2ccc(C(F)(F)F)cc2F)nc2c1cnn2-c1cccc(Cl)c1)c1ccc([N+](=O)[O-])s1 [Compound 6-41, N-(1-(3-chlorophenyl)-6-(2-fluoro-4-(trifluoromethyl)phenyl)-1H-pyrazolo[3,4-d]pyrimidin-4-yl)-5-nitrothiophene-2-carboxamide]",0.32 µM
5,"COCCOc1ccc(-c2nc(NC(=O)c3ccc([N+](=O)[O-])s3)c3cnn(-c4ccc(F)cc4)c3n2)c(F)c1 [Compound 6-138, N-(6-(2-fluoro-4-(2-methoxyethoxy)phenyl)-1-(4-fluorophenyl)-1H-pyrazolo[3,4,d]pyrimidin-4-yl)-5-nitrothiophene-2-carboxamide]",> 1.25 µM
6,"COc1ccc(-n2ncc3c(NC(=O)c4ccc([N+](=O)[O-])s4)nc(-c4ccc(Cl)cc4)nc32)cc1 [Compound 6-20, N-(6-(4-chlorophenyl)-1-(4-methoxyphenyl)-1H-pyrazolo[3,4-d]pyrimidin-4-yl)-5-nitrothiophene-2-carboxamide]",0.32 µM
7,"CC(C)(C)c1ccc(-c2nc(NC(=O)c3ccc([N+](=O)[O-])s3)c3cnn(-c4ccc(OC(F)(F)F)cc4)c3n2)cc1 [Compound 6-86, N-(6-(4-(tert-butyl)phenyl)-1-(4-(trifluoromethoxy)phenyl)-1H-pyrazolo[3,4-d]pyrimidin-4-yl)-5-nitrothiophene-2-carboxamide]",3.46 µM
8,"O=C(Nc1nc(-c2ccc(F)cc2)nc2c1cnn2-c1ccc(Cl)cc1)c1ccc([N+](=O)[O-])s1 [Compound 6-48, N-(1-(4-chlorophenyl)-6-(4-fluorophenyl)-1H-pyrazolo[3,4-d]pyrimidin-4-yl)-5-nitrothiophene-2-carboxamide]",0.18 µM
9,"CC(C)(C)c1ccc(-n2ncc3c(NC(=O)c4ccc([N+](=O)[O-])s4)nc(-c4nnc(C(C)(C)C)o4)nc32)cc1 [Compound 6-76, N-(6-(5-(tert-butyl)-1,3,4-oxadiazol-2-yl)-1-(4-(tert-butyl)phenyl)-1H-pyrazolo[3,4-d]pyrimidin-4-yl)-5-nitrothiophene-2-carboxamide]",0.31 µM
10,"COc1ccc(-n2ncc3c(NC(=O)c4ccc([N+](=O)[O-])s4)nc(-c4ccc(C)nc4)nc32)cc1 [Compound 6-17, N-(1-(4-methoxyphenyl)-6-(6-methylpyridin-3-yl)-1H-pyrazolo[3,4,d]pyrimidin-4-yl)-5-nitrothiophene-2-carboxamide]",0.19 µM
11,"COc1ccc(-n2ncc3c(NC(=O)c4ccc([N+](=O)[O-])s4)nc(C4=CCC(C)(C)CC4)nc32)cc1 [Compound 6-29, N-(6-(4,4-dimethylcyclohex-1-en-1-yl)-1-(4-methoxyphenyl)-1H-pyrazolo[3,4-d]pyrimidin-4-yl)-5-nitrothiophene-2-carboxamide]",0.82 µM
12,"COc1ccc(-n2ncc3c(NC(=O)c4ccc([N+](=O)[O-])s4)nc(NC4CCCCC4)nc32)cc1 [Compound 6-15, N-(6-(cyclohexylamino)-1-(4-methoxyphenyl)-1H-pyrazolo[3,4-d]pyrimidin-4-yl)-5-nitrothiophene-2-carboxamide]",> 1.25 µM
13,"COc1ccc(-n2ncc3c(NC(=O)c4ccc([N+](=O)[O-])s4)nc(-c4ccc(Cl)cc4F)nc32)cc1 [Compound 6-22, N-(6-(4-chloro-2-fluorophenyl)-1-(4-methoxyphenyl)-1H-pyrazolo[3,4-d]pyrimidin-4-yl)-5-nitrothiophene-2-carboxamide]",0.38 µM
14,"CCOCCOc1ccc(-c2nc(NC(=O)c3ccc([N+](=O)[O-])s3)c3cnn(-c4ccc(Cl)cc4)c3n2)cn1 [Compound 6-52, N-(1-(4-chlorophenyl)-6-(6-(2-ethoxyethoxy)pyridin-3-yl)-1H-pyrazolo[3,4-d]pyrimidin-4-yl)-5-nitrothiophene-2-carboxamide]",0.22 µM
15,"O=C(Nc1nc(N2CCC[C@H]2CO)nc2c1cnn2-c1cccc(Cl)c1)c1ccc([N+](=O)[O-])s1 [Compound 6-31, (S)—N-(1-(3-chlorophenyl)-6(2-(hydroxymethyl)pyrrolidin-1-yl)-1H-pyrazolo[3,4-d]pyrmidin-4-yl)-5-nitrothiophene-2-carboxamide]",> 1.25 µM

# Same assay, conditions: Homo sapiens, 48 h, Table 8, MTS, 2 days drug incubation, 50% reduction vs time zero, read-out: Hep3B LC50
row,SMILES,LC50
1,"O=C(Nc1nc(-c2ccc(F)cc2)nc2c1cnn2C1CCCCCC1)c1ccc([N+](=O)[O-])s1 [Compound 8-10, N-(1-cycloheptyl-6-(4-fluorophenyl)-1H-pyrazolo[3,4-d]pyrimidin-4-yl)-5-nitrothiophene-2-carboxamide]",0.83 µM
2,"C[C@@H]1C[C@@H](n2ncc3c(NC(=O)c4ccc([N+](=O)[O-])s4)nc(-c4ccc(F)cc4)nc32)CC(C)(C)C1 [Compound 8-13, N-(6-(4-fluorophenyl)-1-((1R,5S)-3,3,5-trimethylcyclohexyl)-1H-pyrazolo[3,4-d]pyrimidin-4-yl)-5-nitrothiophene-2-carboxamide]",0.9 µM
3,"CC(C)(C)OC(=O)N1CC[C@H](n2ncc3c(NC(=O)c4ccc([N+](=O)[O-])s4)nc(-c4ccc(F)nc4)nc32)C1 [Compound 8-7, tert-butyl (S)-3-(6-(6-fluoropyridin-3-yl)4-(5-nitrothiophene-2-carboxamido)-1H-pyrazolo[3,4-d]pyrimidin-1-yl)pyrrolidine-1-carboxylate]",1.49 µM

# Same assay, conditions: Homo sapiens, 48 h, Table 9, MTS, 2 days drug incubation, 50% reduction vs time zero, read-out: Hep3B LC50
row,SMILES,LC50
1,"CCCC(=O)N1CCC(n2ncc3c(NC(=O)c4ccc([N+](=O)[O-])s4)nc(-c4ccc(F)nc4)nc32)CC1 [Compound 9-7, N-(1-(1-butyrylpiperidin-4-yl)-6-(6-fluoropyridin-3-yl)-1H-pyrazolo[3,4-d]pyrimidin-4-yl)-5-nitrothiophene-2-carboxamide]",> 5 µM

# Same assay, conditions: Homo sapiens, 48 h, Table 10, MTS, 2 days drug incubation, 50% reduction vs time zero, read-out: Hep3B LC50
row,SMILES,LC50
1,"O=C(Nc1nc(-c2ccc(OCC(F)(F)F)nc2)nc2c1cnn2C1CCCCC1)c1ccc([N+](=O)[O-])s1 [Compound 10-49, N-(1-cyclohexyl-6-(6-(2,2,2-trifluoroethoxy)pyridin-3-yl)-1H-pyrazolo[3,4-d]pyrimidin-4-yl)-5-nitrothiophene-2-carboxamide]",0.63 µM
2,O=C(Nc1nc(-c2cc(F)cc(F)c2)nc2c1cnn2C1CCCCC1)c1ccc([N+](=O)[O-])s1 [Compound 10-41],0.79 µM
3,"CC1(C)CCC(n2ncc3c(NC(=O)c4ccc([N+](=O)[O-])s4)nc(-c4ccc(F)nc4)nc32)CC1 [Compound 10-62, N-(1-(4,4-dimethylcyclohexyl)-6-(6-fluoropyridin-3-yl)-1H-pyrazolo[3,4-d]pyrimidin-4-yl)-5-nitrothiophene-2-carboxamide]",0.71 µM
4,"O=C(Nc1nc(-c2ccc(Cl)s2)nc2c1cnn2C1CCCCC1)c1ccc([N+](=O)[O-])s1 [Compound 10-8, N-(6-(5-chlorothiophen-2-yl)-1-cyclohexyl-1H-pyrazolo[3,4-d]pyrimidin-4-yl)-5-nitrothiophene-2-carboxamide]",0.49 µM
5,"O=C(Nc1nc(-c2ccc(Cl)cc2)nc2c1cnn2C1CCC(F)(F)CC1)c1ccc([N+](=O)[O-])s1 [Compound 10-56, N-(6-(4-chlorophenyl)-1-(4,4-difluorocyclohexyl)-1H-pyrazolo[3,4,d]pyrimidin-4-yl)-5-nitrothiophene-2-carboxamide]",0.77 µM
